In patent US9243036B2, “Anti-microbial activity of synthetic peptides” (THE UNITED STATES OF AMERICA, as represented by the …, priority 2012, dated 2016):

Assays:
[1] = literature; cited from earlier work
P. aeruginosa [2] = assay: Membrane permeability by PI and SYTO9 uptake (LIVE/DEAD BACLIGHT); format: cell-based; conditions: even at the lowest concentration used
Description: (§1) The effects of EC5 on the membrane integrity of E. coli and P. aeruginosa cells were assessed using the LIVE/DEAD BACLIGHT™ kit (Invitrogen, Oregon) according to the manufacturer's protocol. Membrane integrity of the cells after the addition of different concentrations of peptide EC5 was measured using fluorescence micro plate reader (BioTek Instruments, Winooski, Vt.). Experiments were done in triplicates. PMB was used as a positive control.
(§2) The membrane permeabilizing activity of EC5 was also studied using the SYTO9 and PI staining method. SYTO9 stain labels both live and dead bacteria when alone, but propidium iodide stains only cells with damaged membranes, reducing the level of green fluorescent SYTO9 when both the dyes are present. […] The ratio of green versus red fluorescence can be calculated as a measure of live bacteria. […] Polymyxin B, an AMP with a net charge of +5 with membrane permeabilizing activity was used as positive control.

E. coli [3] = assay: as above; format: cell-based; conditions: even at the lowest concentration used
Description: as §1, §2

[4] = test system: E. coli and P. aeruginosa; assay: MIC of polymyxin B (bacterium not stated; E. coli / P. aeruginosa context); format: cell-based
Description: In vitro anti-bacterial activity of EC5. The test microorganisms mentioned earlier in the experimental procedures were used to evaluate the bactericidal activity of EC5 peptide. The minimum inhibitory concentrations (MICs) of the peptide were determined by standard dilution assay as recommended by Clinical and Laboratory Standard Institutes (CLSI) guidelines (Azad, M. A., et al., (2011) Antimicrob. Agents Chemother. 55, 2137-2145). Bacteria were grown to mid-logarithmic phase in cation-supplemented Mueller-Hinton broth (MHB) (Becton Dickinson, Sparks, Md.) on an orbital shaker (37° C.) and diluted to a 0.5 McFarland standard to a final volume of 1 ml. Decreasing concentrations of the peptide were incubated with the microorganisms. Results were recorded by visual inspection after 24 h of incubation at 37° C. Assay was repeated three separate times to ensure reproducibility. […]
Cytoplasmic depolarization assay(Δψ) was performed using the membrane potential sensitive dye 3,3′-dipropylthiadicarbocyanine iodide (diSC3-5) (Zang, L. et al., (2001) J. Biol. Chem. 276, 35714-35722). This dye can cross the outer membrane of the bacterial cell and become concentrated in the cytoplasmic membrane and thereby it self-quenches its own fluorescence. Upon addition of a membrane-permeabilizing agent the dye is released with consequent increase in the fluorescence. […]

P. aeruginosa [5] = assay: Cytoplasmic membrane depolarization assay (diSC3-5) with parallel CFU plating; format: cell-based
Description: (§3) Membrane depolarization activity (Δψ) of the peptide was determined with intact E. coli and P. aeruginosa cells and the membrane potential-sensitive fluorescent dye, 3,3′-dipropylthiadicarbocyanine Iodide (diSC (3)5) (Invitrogen, Oregon), according to described methods (Sims, P. J., et al (1974) Biochemistry 13, 3315-3330). Briefly, bacterial cells of mid-logarithmic phase were harvested by centrifugation and washed twice with HEPES buffer (5 mM HEPES, 5 mM glucose, pH 7.6). The cells were suspended in the same buffer to an OD of 0.05. The cell suspension was incubated with […] diSC (3)5 until maximal uptake of the dye. 100 mM KCl was added to equilibrate the cytoplasmic and external potassium ion concentration of peptide, and fluorescence was monitored at an excitation wavelength of 622 nm and an emission wavelength of 670 nm. Polymyxin B was used as a positive control and S. aureus cells were used as negative control. Simultaneously the cells were plated on NA plates and incubated at 37° C. overnight to assess the number of CFU.
(§4) Cytoplasmic depolarization assay(Δψ) was performed using the membrane potential sensitive dye 3,3′-dipropylthiadicarbocyanine iodide (diSC3-5) (Zang, L. et al., (2001) J. Biol. Chem. 276, 35714-35722). This dye can cross the outer membrane of the bacterial cell and become concentrated in the cytoplasmic membrane and thereby it self-quenches its own fluorescence. Upon addition of a membrane-permeabilizing agent the dye is released with consequent increase in the fluorescence. EC5 at 8 μg/ml and 16 μg/ml caused rapid depolarization of the cytoplasmic membrane in both E. coli and P. aeruginosa resulting in the release of diSC3-5 within 5 min (FIG. 9C). […] However Polymyxin B even at its MIC of 0.5 μg/ml caused slow release of diSC3-5 when compared to EC5.

E. coli [6] = assay: as above; format: cell-based
Description: as §3, §4

[7] = polymyxin B; cited from earlier work
[8] = polymyxin B at 3.125 μg/ml, after 5 min of exposure
[9] = polymyxin B at its MIC of 0.5 μg/ml, compared to EC5

Substance: Polymyxin B
- toxicity [1]: high toxicity, especially nephrotoxicity
- permeabilization of bacterial cell membranes (P. aeruginosa [2]): able to permeabilize almost all bacterial cell membranes
- permeabilization of bacterial cell membranes (E. coli [3]): able to permeabilize almost all bacterial cell membranes
- MIC of polymyxin B [4]: 0.5 µg/mL
- time to complete inhibition of CFU (P. aeruginosa [5]; polymyxin B at 3.125 μg/ml): ≤ 5 min
- release of diSC35 from the cells (P. aeruginosa [5]; [8]): minimal release
- release of diSC3-5 (P. aeruginosa [5]; [9]): slow release
- time to complete inhibition of CFU (E. coli [6]; polymyxin B at 3.125 μg/ml): ≤ 5 min
- release of diSC35 from the cells (E. coli [6]; [8]): minimal release
- release of diSC3-5 (E. coli [6]; [9]): slow release
- net charge [7]: +5
